In patent US11413278B2, “Compounds and methods for promoting stress resistance” (priority 2015, dated 2022):
Read-outs that look alike come from different tables or passages of the source.

Experiments:
C. elegans = assay type: in vivo, Caenorhabditis elegans
Description: The worms were treated with the small molecules in liquid, with H2O2 (500 μM final concentration) added on day 4 of adulthood, and scored for viability everyday
FUdR was used to block progeny production. The molecules were analyzed in 96-well plates, with 4 wells for each small molecule. Multiple control wells with DMSO (0.2% final concentration) were included. […] Day 1 adults were transferred onto mini-plates, seeded with OP50 bacteria (UV-irradiated, kanamycin-treated) and supplemented with small molecules (˜60 μM final concentration, 0.2% DMSO). Worms were scored every other day. Cumulative survival was analyzed using the STATA software (log-rank test). […] The worms were treated with the small molecules in liquid, with H2O2 (500 μM final concentration) added on day 4 of adulthood, and scored for viability every day.

LC3A/B puncta = test: Autophagy induction analysis (LC3A/B puncta immuno-staining); assay type: cell-based, human; conditions: for Assay 15: Potential autophagy induction by LC3A/B puncta assays: 10 uM & 20 uM, YES/NO; for Exp. 1, induction of LC3A/B puncta (Up), total intensity normalized by total number of nuclei in the fields / Exp. 1, normalized change of nuclei numbers (Less cells): Exp. 1, 10 μM, 10X objective; for Exp. 1, induction of LC3A/B puncta (Up), total intensity normalized by total number of nuclei in the fields / Exp. 1, normalized change of nuclei numbers (Less cells) / Exp. 2, induction of LC3A/B puncta (Up), overlapped signals normalized by total number of nuclei in the fields / Exp. 2, normalized change of nuclei numbers (Less cells): WI-38 cells; for Exp. 2, induction of LC3A/B puncta (Up), overlapped signals normalized by total number of nuclei in the fields / Exp. 2, normalized change of nuclei numbers (Less cells): 20X objective, lysosomal LAMP co-staining
Description: Immuno-staining of LC3A/B was performed, following a standard protocol. Briefly, WI-38 cells were treated with small molecules for 24 hrs, and then processed and incubated with primary antibody (Cell Signaling, rabbit anti-LC3A/B, 1:100) overnight at 4° C. Next day, samples were processed and incubated with fluorophore-conjugated secondary antibody and further incubated with DAPI dye. Images were collected on the INCell Analyzer 2000 (Experiment 1: 10× objective; Experiment 2: 20× objective) and analyzed with the Developer Toolbox. For Experiment 2, lysosomal-associated membrane protein 2 (LAMP2) was also counter-stained to identify the LC3A/B puncta that colocalize with lysosome and the data were analyzed by the MetaXpress software (Molecular Devices, version 5.1). The intensity of total (Exp. 1) or LAMP2-colocalized LC3A/B puncta (Exp. 2) was normalized the total numbers nuclei in the fields.
These assays were performed, following the same procedures to analyze DNA-damage markers. WI-38 cells were incubated with small molecules for 24 hrs, and then processed and incubated with primary antibody (rabbit anti-LC3A/B, 1:100) overnight at 4 C. The next day, samples were processed and incubated with fluorophore-conjugated secondary antibody and further incubated with DAPI dye. Images were collected on an INCell Analyzer 2000 and analyzed with the Developer software. Total LC3A/B puncta intensity was normalized the total numbers of DAPI-positive nuclei.

NRF2 = test: in vitro; assay type: cell-based, human; conditions: for NRF2-dependency for H2O2-resistance, at 10 uM - with H2O2, 1st experiment: experiment 1 (1st); for NRF2-dependency for H2O2-resistance, at 10 uM - with H2O2, 1st experiment / NRF2-dependency for H2O2-resistance, at 10 uM (experiment 3) - with & without H2O2 / NRF2-dependency for H2O2-resistance (experiment 3) / NRF2-dependency for H2O2-resistance, 1st experiment / Assay 17: NRF2-dependency for H2O2-resistance / NRF2-dependency for H2O2-resistance, at 10 uM - with H2O2, 2nd experiment / NRF2-dependency for H2O2-resistance, 2nd experiment: 10 uM; for NRF2-dependency for H2O2-resistance (experiment 3): with & without H2O2, NRF2 knockdown in WI-38 cells; for NRF2-dependency for H2O2-resistance (experiment 3) / NRF2-dependency for H2O2-resistance, 1st experiment / NRF2-dependency for H2O2-resistance, 2nd experiment: YES = resistance reduced by at least 50%, partial = 25% to 50%; for NRF2-dependency for H2O2-resistance, 1st experiment / NRF2-dependency for H2O2-resistance, 2nd experiment: with H2O2, NRF2 knockdown in WI-38 cells; for Assay 17: NRF2-dependency for H2O2-resistance: YES/NO; for NRF2-dependency for H2O2-resistance, at 10 uM - with H2O2, 2nd experiment: experiment 2 (2nd); for NRF2-dependency of H2O2-resistance (NRF2 siRNA knockdown): at least 2 of 3 independent experiments
[1] = test system: HTB-178 lung tumor cells (EGFR+, PIK3CA+, RB1−, TP53−); test: Killing effects on HTB-178 tumor cells; assay type: cell-based, human; conditions: for Potential killing effects on HTB-178 tumor cells, 1st: Assay 1(y), at 10 uM

Compound | Exp. 1, induction of LC3A/B puncta (Up), total intensity normalized by total number of nuclei in the fields (LC3A/B puncta) | Exp. 2, normalized change of nuclei numbers (Less cells) (LC3A/B puncta; Exp. 2, 10 μM) | Exp. 2, normalized change of nuclei numbers (Less cells) (LC3A/B puncta; Exp. 2, 20 μM) | H = Potential Autophagy Induction (LC3A/B puncta; score) | H = Potential Autophagy Induction (LC3A/B puncta; summary score) | J = NRF2-dependency for H2O2-resistance (NRF2; score) | J = NRF2-dependency for H2O2-resistance (NRF2; summary score) | L = H2O2-resistance in worms (C. elegans; in vivo) | N = H2O2-resistance in woms (C. elegans; in vivo) | further results
COc1cc2c(no[n+]2[O-])n2nnnc12 [O11] | p < 0.01; Up, 315%, | Less cells, 71%, | Less cells, 69%, | 1 | 1 | 0 | 0 |  |  | H2O2-resistance assay, 1st experiment (C. elegans; 60 μM, in liquid, wild type, with FuDR): YES;; N = H2O2-resistance in woms (C. elegans; score): 0; L = H2O2-resistance in worms (C. elegans; summary score): 0; Assay 15: Potential autophagy induction by LC3A/B puncta assays (LC3A/B puncta): YES; Exp. 1, normalized change of nuclei numbers (Less cells) (LC3A/B puncta): Less cells, 64%,; Exp. 2, induction of LC3A/B puncta (Up), overlapped signals normalized by total number of nuclei in the fields (LC3A/B puncta; Exp. 2, 10 μM): p < 0.001; Up, 193%,; Exp. 2, induction of LC3A/B puncta (Up), overlapped signals normalized by total number of nuclei in the fields (LC3A/B puncta; Exp. 2, 20 μM): p < 0.001; Up, 159%,; Potential killing effects on HTB-178 tumor cells, 1st [1]: YES;
O=C(Nc1cccc(Cl)c1)c1ccc([N+](=O)[O-])o1 [Gr-1D] | p < 0.05; Up, 617%, | Less cells, 67%, | Less cells, 73%, | 1 | 1 | 0 | 0 | 0 | 0 | Assay 15: Potential autophagy induction by LC3A/B puncta assays (LC3A/B puncta): YES; Exp. 1, normalized change of nuclei numbers (Less cells) (LC3A/B puncta): Less cells, 67%,
O=C(Nc1cccc(C(F)(F)F)c1)c1ccc([N+](=O)[O-])o1 [Gr-1E] | Up, 260%, p < 0.01 | Less cells, 75%, | Less cells, 58%, | 0 | 0 | 0 | 0 | 0 | 0 | 
Cc1cc(N)n(-c2ccccc2C(=O)O)n1 [Gr-6A] |  |  |  | 0 | 0 | 0 | 0 | 0 | 0 | H2O2-resistance assay, 1st experiment (C. elegans; in vivo): YES;; Potential killing effects on HTB-178 tumor cells, 1st [1]: YES;
CCc1ccc(Oc2nc3ccccn3c(=O)c2/C=C(\C#N)C(=O)NCc2ccco2)cc1 [Gr-5B] |  |  |  | 0 | 0 | 0 | 0 | 0 | 0 | 
O=C(Nc1cc(C(F)(F)F)ccc1Cl)c1ccc([N+](=O)[O-])o1 [Gr-1B] | No induction |  |  | 0 | 0 | 0 | 0 | 0 | 0 | 
COc1ccc(/C=C2\SC(=N)N(c3nccs3)C2=O)cc1 [O21] |  |  |  | 0 | 0 | 1 | 1 | 0 | 0 | NRF2-dependency for H2O2-resistance, at 10 uM - with H2O2, 1st experiment (NRF2): 1st, partial;; NRF2-dependency for H2O2-resistance, at 10 uM (experiment 3) - with & without H2O2 (NRF2): YES; NRF2-dependency for H2O2-resistance (experiment 3) (NRF2): YES; NRF2-dependency for H2O2-resistance, 1st experiment (NRF2): partial;; Assay 17: NRF2-dependency for H2O2-resistance (NRF2): YES
O=C1NCCCc2cc(Cl)sc21 [O1] |  |  |  | 0 | 0 | 1 | 1 | 0 | 0 | NRF2-dependency for H2O2-resistance, at 10 uM - with H2O2, 1st experiment (NRF2): 1st, partial;; NRF2-dependency for H2O2-resistance, at 10 uM - with H2O2, 2nd experiment (NRF2): 2nd, partial.; NRF2-dependency for H2O2-resistance, 1st experiment (NRF2): partial;; NRF2-dependency for H2O2-resistance, 2nd experiment (NRF2): partial.; Assay 17: NRF2-dependency for H2O2-resistance (NRF2): YES; NRF2-dependency of H2O2-resistance (NRF2 siRNA knockdown) (NRF2): significantly attenuate
O=C(/C=C/c1cn(-c2ccccc2)nc1-c1cccnc1)c1ccccc1 [Gr-6B] |  |  |  | 0 | 0 | 1 | 1 | 0 | 0 | NRF2-dependency for H2O2-resistance, at 10 uM - with H2O2, 2nd experiment (NRF2): 2nd, partial.; NRF2-dependency for H2O2-resistance, at 10 uM (experiment 3) - with & without H2O2 (NRF2): YES; NRF2-dependency for H2O2-resistance (experiment 3) (NRF2): YES; NRF2-dependency for H2O2-resistance, 2nd experiment (NRF2): partial.; Assay 17: NRF2-dependency for H2O2-resistance (NRF2): YES; NRF2-dependency of H2O2-resistance (NRF2 siRNA knockdown) (NRF2): significantly attenuate
CNC(=O)/C(C#N)=C/c1c(Oc2ccc(C(C)(C)C)cc2)nc2ccccn2c1=O [Gr-5D] |  |  |  | 0 | 0 | 0 | 0 | 0 | 0 | 
CCc1ccccc1NC(=O)c1ccc([N+](=O)[O-])o1 [Gr-1C] | p < 0.01; Up, 956%, | Less cells, 58%, | Less cells, 41%, | 1 | 1 | 0 | 0 | 0 | 0 | Assay 15: Potential autophagy induction by LC3A/B puncta assays (LC3A/B puncta): YES; Exp. 1, normalized change of nuclei numbers (Less cells) (LC3A/B puncta): Less cells, 70%,
COc1ccc(C(=O)/C=C/c2cccc(Cl)c2)c(OC)c1 [Gr-4C] |  |  |  | 0 | 0 | 0 | 0 |  |  | N = H2O2-resistance in woms (C. elegans; score): 0; L = H2O2-resistance in worms (C. elegans; summary score): 0
Oc1ccccc1-c1noc(-c2ccccc2O)n1 [O27] |  |  |  | 0 | 0 | 0 | 0 |  |  | Assay 21: Potential killing effects on HTB-178 tumor cells ([1]; 10 uM, YES/NO): YES
